According to patent US4847245A, “N-demethylefrotomycin” (Pfizer Inc., priority 1988, dated 1989):
Like-named read-outs stand apart in the source and are kept apart here.

Tests used:
Past. haem. 010 = experiment: mouse protection test; format: in vivo; conditions: mice infected i.p. with multilethal amounts of Past. haem. 010
Method: Additionally, compound (I) is tested in vivo by the well-known mouse protection test, or by a microbiological (bioassay) determination of serum levels in a variety of mammals (e.g., mouse, rat, dog). For example, at subcutaneous doses of either 100 mg./kg. or 25 mg./kg., there was survival of 5/5 mice infected i.p. with multilethal amounts of Past. haem. 010.

E. coli = experiment: MIC in brain heart infusion (BHI) broth, two-fold dilutions; format: cell-based; conditions: Escherichia coli
Source text: (§1) Generally twelve 2 fold dilutions of the test compound are employed, with initial concentration of the test drug being in the range of 50 to 200 mcg./ml. The susceptibility (MIC) of the test organism is accepted as the lowest concentration of compound capable of producing complete inhibition of growth as judged by the naked eye.

Morax. bovis = experiment: as above; format: cell-based
Source text: as §1

Trepo. hyodis. = experiment: as above; format: cell-based; conditions: 24 h
Source text: as §1

Past. haem. = experiment: as above; format: cell-based
Source text: as §1

Hemoph. pleur. = experiment: as above; format: cell-based; conditions: 24 h
Source text: as §1

Fusob. necro. = experiment: as above; format: cell-based; conditions: 24 h
Source text: as §1

Staph. aureus = experiment: as above; format: cell-based; conditions: Staphylococcus aureus
Source text: as §1

Lact. sp. = experiment: as above; format: cell-based; conditions: 24 h; Lact. sp. 001, Day 1
Source text: as §1

Acto. pyog. = experiment: as above; format: cell-based; conditions: 24 h
Source text: as §1

Past. mult = experiment: as above; format: cell-based
Source text: as §1

Strep. zooedid. = experiment: as above; format: cell-based; conditions: 24 h; Strep. zooedid. 001, Day 1
Source text: as §1

Lact. acidoph. = experiment: as above; format: cell-based; conditions: 24 h; Lact. acidoph. 001, Day 1
Source text: as §1

CC=CC=CC1OC(O)(C(CC)C(=O)NCC=CC=C(C)C(OC)C(C)C2OC(C=CC=CC=C(C)C(=O)c3c(O)cc[nH]c3=O)C(O)C2O)C(O)C(OC2OC(C)C(OC3OC(C)C(OC)C(O)C3OC)C(OC)C2O)C1(C)C (stereo not drawn) [N--Demethylefrotomycin, N-demethylefrotomycin]
100 µg/mL: MIC (Acto. pyog.; Acto. pyog. 011, Day 1, read-out: MIC)
5/5: survival of mice (Past. haem. 010; subcutaneous 25 mg./kg.) | survival of mice (Past. haem. 010; subcutaneous 100 mg./kg.)
1.56 µg/mL: MIC (Trepo. hyodis.; Trepo. hyodis. 001, Day 1) | MIC (Trepo. hyodis.; Trepo. hyodis. 007, Day 1)
3.12 µg/mL: MIC (Morax. bovis; 48 h, Morax. bovis 001, Day 2) | MIC (Past. haem.; 24 h, Past. haem. 010, Day 1, read-out: MIC) | MIC (Past. haem.; 48 h, Past. haem. 061, Day 2, read-out: MIC) | MIC (Past. mult; 24 h, Past. mult 048, Day 1, read-out: MIC)
> 100 µg/mL: MIC (E. coli; 24 h, E. coli 124, Day 1) | MIC (E. coli; 48 h, E. coli 124, Day 2) | MIC (Hemoph. pleur.; Hemoph. pleur. 024, Day 1, read-out: MIC) | MIC (Staph. aureus; 24 h, Staph. aureus 006, Day 1) | MIC (Staph. aureus; 48 h, Staph. aureus 006, Day 2) | MIC (Lact. sp.) | MIC (Strep. zooedid.)
0.78 µg/mL: MIC (Trepo. hyodis.; Trepo. hyodis. 002, Day 1)
12.5 µg/mL: MIC (Past. haem.; 24 h) | MIC (Past. haem.; 48 h) | MIC (Past. haem.; Past. haem. 046, Day 2) | MIC (Hemoph. pleur.; Hemoph. pleur. 004, Day 1) | MIC (Hemoph. pleur.; Hemoph. pleur. 005, Day 1) | MIC (Acto. pyog.; Acto. pyog. 002, Day 1) | MIC (Acto. pyog.; Acto. pyog. 008, Day 1) | MIC (Past. mult; 48 h) | MIC (Lact. acidoph.)
6.25 µg/mL: MIC (Morax. bovis; 24 h, Morax. bovis 001, Day 1) | MIC (Fusob. necro.; Fusob. necro. 006, Day 1) | MIC (Past. mult; 24 h, Past. mult 006, Day 1, read-out: MIC) | MIC (Past. mult; 48 h, Past. mult 048, Day 2, read-out: MIC)
25 µg/mL: MIC (Past. haem.; 24 h, Past. haem. 046, Day 1, read-out: MIC) | MIC (Past. haem.; 24 h, Past. haem. 061, Day 1, read-out: MIC) | MIC (Fusob. necro.; Fusob. necro. 004, Day 1)
